Source: article PMC5741723, “Residues His172 and Lys238 are Essential for the Catalytic Activity of the Maleylacetate Reductase from Sphingobium chlorophenolicum Strain L-1” (Scientific Reports, 2017)

How the values were obtained:
[1] = biological target: T1, maleylacetate reductase (PcpE) (Sphingobium chlorophenolicum, UniProt F6F233); assay: surface plasmon resonance; assay type: binding; details: PcpE immobilised by amine coupling; PBS-T, 5% DMSO, pH 7.4; n = 5
T1 construct: gene Sphch_4020; full length, 352 residues; recombinant His6-tagged, tag kept (SPR); mutants in pET30a(+) NdeI/XhoI, E. coli BL21-AI

[2] = biological target: T1, maleylacetate reductase (PcpE); assay: inhibition of MA reduction, NADH loss at […] nm; assay type: biochemical; details: 360 µM NADH, 400 µM MA, 20 mM Tris-HCl pH 7.0

T1 sequence (F6F233 entry or part of it): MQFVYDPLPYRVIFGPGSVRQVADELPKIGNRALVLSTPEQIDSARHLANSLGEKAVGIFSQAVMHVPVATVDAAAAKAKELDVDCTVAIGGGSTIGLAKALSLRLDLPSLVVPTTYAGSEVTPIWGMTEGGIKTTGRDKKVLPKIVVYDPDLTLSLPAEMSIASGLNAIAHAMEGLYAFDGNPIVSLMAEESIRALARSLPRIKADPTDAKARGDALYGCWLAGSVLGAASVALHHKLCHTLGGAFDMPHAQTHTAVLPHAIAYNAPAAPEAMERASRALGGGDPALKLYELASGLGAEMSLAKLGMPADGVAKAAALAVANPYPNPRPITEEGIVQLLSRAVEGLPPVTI

SMILES: Oc1c(Cl)c(Cl)c(Cl)c(Cl)c1Cl [PCP, pentachlorophenol]
- Kd [1]: 12.8 ± 0.2 µM
- % catalytic activity remaining at 5 μM [2]: ~ 30%
